Patent publication US12187672B2, “1,2-diacylglycerol compound, preparation method therefor, and immunomodulator containing same as active ingredient” (ENZYCHEM LIFESCIENCES CORPORATION, priority 2018, dated 2025)

Key:
CXCL8 (IL-8) = CXCL8 (IL-8) expression reduction in Gemcitabine-treated THP-1 cells (ELISA); format: cell-based, human; settings: THP-1 cells; sample 100 μg/ml 1 h, then Gemcitabine 2 μg/ml 24 h
How it was run: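 Human THP-1 macrophage-like cells in RPMI/10% FBS, plated at 1×10^6 cells/ml, pretreated 1 h with compound, then stimulated with Gemcitabine (2 μg/ml) for 24 h at 37° C, 5% CO2. Secreted IL-8 in the supernatant was measured by sandwich ELISA, read at 450 nm.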

IL-6 = test: LPS-induced IL-6 secretion reduction in RAW264.7 cells (ELISA); format: cell-based, mouse; settings: sample 100 μg/ml 1 h, then LPS 1 μg/ml 24 h, Table 3
How it was run: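 Mouse RAW264.7 macrophages in DMEM/10% FBS were plated at 5×10^4 cells/ml, rested for 15 h, treated with compound for 1 h, then stimulated with 1 μg/ml LPS for 24 h at 37 °C. IL-6 in the supernatant was measured by sandwich ELISA (HRP, OD 450 nm) and expressed as reduction rate or concentration.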

STAT3 = STAT3 activity, pGL4.47 SIE luciferase reporter in LPS-treated RAW264.7 cells; format: cell-based, mouse; settings: sample 100 μg/ml 1 h, then LPS 1 μg/ml 18 h
Method: pGL4.47 [luc2P/SIE/Hygro] vector containing the sis-Inducible Element that binds to STAT3 was injected into RAW264.7 cells to confirm the degree of STAT3 activity. In DMEM (Hyclone, Thermo Scientific) medium to which 10% Fetal Bovine Serum was added, RAW264.7 cells were cultured at a concentration of 1×10^5 cells/ml, and maintained in a 5% CO2 humidified incubator at 37° C. The cultured RAW264.7 cells were inoculated into a 48 well plate by 1×10^5 cells/ml and stabilized for 18 hours. Thereafter, the pGL4.47 [luc2P/SIE/Hygro] vector containing sis-Inducible Element was mixed with Attractene to induce complex formation at room temperature for 15 minutes. This complex was treated with the cells and then further incubated for 18 hours. Thereafter, the culture solution was treated with a glycerol derivative compounds of the type shown in Table 5 below for 1 hour and then LPS (1 μg/ml) was treated and further incubated for 18 hours for STAT3 activity. Thereafter, the culture supernatant was removed for each well, and the remaining cells were lysed with a cell lysis buffer, and then cell lysate was recovered. 90 μl of luciferase reagent was mixed with 10 μl of the recovered cell lysate, and the degree of fluorescence was confirmed using a luminometer.

IL-4 = test: PKC activator-induced IL-4 secretion reduction in EL-4 cells (ELISA); format: cell-based, mouse; settings: for decrease of IL-4 secretion/expression: PKC activator-treated, 100 μg/ml; for IL-4 concentration (average ± deviation): sample 100 μg/ml 2 h, then PKC activator 18 h, Table 12
How it was run: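 Mouse EL-4 lymphoma cells in DMEM/10% FBS pretreated 2 h with compound, then stimulated with 0.5 μg/ml PKC activator (PMA type) for 18 h at 37 °C. Secreted IL-4 in supernatant quantified by sandwich ELISA (OD 450 nm) and expressed as reduction rate.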

Row | SMILES | CXCL8 [IL-8] concentration (average ± deviation) (CXCL8 (IL-8)) [pg/µL] | IL-6 concentration (average ± deviation) (IL-6) [pg/µL] | STAT3 activity_Luciferase activity (average ± deviation) (STAT3) | decrease of IL-4 secretion/expression (IL-4) | IL-4 concentration (average ± deviation) (IL-4) [pg/µL]
1 | CCCCC/C=C\C/C=C\CCCCCCCC(=O)OC(COC(=O)CC)COC(=O)CCCCCCCCCCC (stereo not shown) [EC_A91] | 96.1 ± 3.6 | 0.752 ± 0.068 | 746.5 ± 26.1 | about 20% | 446.0 ± 16.7
2 | CCCCC/C=C\C/C=C\CCCCCCCC(=O)OC(COC(=O)CCC)COC(=O)CCCCCCCCCCC (stereo not shown) [EC_A92] | 105.1 ± 0.2 | 0.800 ± 0.038 | 820 ± 448.3 | about 20% | 498.3 ± 45.6
3 | CCCCC/C=C\C/C=C\CCCCCCCC(=O)OC(COC(=O)CCCC)COC(=O)CCCCCCCCCCC (stereo not shown) [EC_A93] | 110.9 ± 0.0 | 0.765 ± 0.055 | 536.2 ± 222.3 | about 20% | 507.9 ± 3.85
4 | CCCCC/C=C\C/C=C\CCCCCCCC(=O)OC(COC(=O)CCCCCCCCCCC)COC(=O)C(C)CC (stereo not shown) [EC_A96] | 103.7 ± 5.4 | 0.788 ± 0.006 | 1136.7 ± 63.9 | – | 582.9 ± 17.3
5 | CCCCC/C=C\C/C=C\CCCCCCCC(=O)OC(COC(=O)CC)COC(=O)CCCCCCCCC (stereo not shown) [EC_A97] | 96.2 ± 0.2 | 0.745 ± 0.015 | 573.2 ± 146.7 | – | 541.5 ± 20.5
6 | CCCCC/C=C\C/C=C\CCCCCCCC(=O)OC(COC(=O)CCC)COC(=O)CCCCCCCCC (stereo not shown) [EC_A98] | 105 ± 2.0 | 0.619 ± 0.036 | 370.7 ± 35.0 | – | 584.2 ± 50.1
7 | CCCCC/C=C\C/C=C\CCCCCCCC(=O)OC(COC(=O)CCCC)COC(=O)CCCCCCCCC (stereo not shown) [EC_A99] | 102.0 ± 19.3 | 0.666 ± 0.075 | 353.2 ± 83.0 | – | 553.3 ± 39.8
8 | CCCCC/C=C\C/C=C\CCCCCCCC(=O)OC(COC(=O)CCCCCCCCC)COC(=O)C(C)C (stereo not shown) [EC_A100] | 115.1 ± 3.9 | 0.749 ± 0.054 | 572.2 ± 60.4 | – | 539.7 ± 6.4
9 | CCCCC/C=C\C/C=C\CCCCCCCC(=O)OC(COC(=O)CCCCCCCCC)COC(=O)C(C)(C)C (stereo not shown) [EC_A101] | 118.1 ± 2.8 | 0.645 ± 0.057 | 581.7 ± 8.1 | – | 634.7 ± 3.21
10 | CCCCC/C=C\C/C=C\CCCCCCCC(=O)OC(COC(=O)CCCCCCCCC)COC(=O)C(C)CC (stereo not shown) [EC_A102] | 102.5 ± 4.4 | 0.738 ± 0.070 | 602 ± 11.3 | – | 775.1 ± 11.5
